pIC50: −log10 of the molar value. In brackets after ≈: the same amount, converted by molar mass.
Tests used:
bacterial DNA gyrase = molecular target: bacterial DNA gyrase; set-up: method as in PMID 17074789; conditions: read-out: half maximum inhibitory concentration (IC50), DNA gyrase; cited from earlier work
E. coli DNA gyrase = E. coli DNA gyrase (Escherichia coli, UniProt P0AES4); assay: E. coli gyrase DNA cleavage assay; type: biochemical; set-up: key to Gyrase inhibition strong+ / weak −: + strong inhibition; − weak inhibition in comparison to compound 16; conditions: for Gyrase inhibition strong+ / weak −: qualitative DNA cleavage assay at 1 μM and 10 μM, in comparison to compound 16
Chain of E. coli DNA gyrase (P0AES4 whole entry): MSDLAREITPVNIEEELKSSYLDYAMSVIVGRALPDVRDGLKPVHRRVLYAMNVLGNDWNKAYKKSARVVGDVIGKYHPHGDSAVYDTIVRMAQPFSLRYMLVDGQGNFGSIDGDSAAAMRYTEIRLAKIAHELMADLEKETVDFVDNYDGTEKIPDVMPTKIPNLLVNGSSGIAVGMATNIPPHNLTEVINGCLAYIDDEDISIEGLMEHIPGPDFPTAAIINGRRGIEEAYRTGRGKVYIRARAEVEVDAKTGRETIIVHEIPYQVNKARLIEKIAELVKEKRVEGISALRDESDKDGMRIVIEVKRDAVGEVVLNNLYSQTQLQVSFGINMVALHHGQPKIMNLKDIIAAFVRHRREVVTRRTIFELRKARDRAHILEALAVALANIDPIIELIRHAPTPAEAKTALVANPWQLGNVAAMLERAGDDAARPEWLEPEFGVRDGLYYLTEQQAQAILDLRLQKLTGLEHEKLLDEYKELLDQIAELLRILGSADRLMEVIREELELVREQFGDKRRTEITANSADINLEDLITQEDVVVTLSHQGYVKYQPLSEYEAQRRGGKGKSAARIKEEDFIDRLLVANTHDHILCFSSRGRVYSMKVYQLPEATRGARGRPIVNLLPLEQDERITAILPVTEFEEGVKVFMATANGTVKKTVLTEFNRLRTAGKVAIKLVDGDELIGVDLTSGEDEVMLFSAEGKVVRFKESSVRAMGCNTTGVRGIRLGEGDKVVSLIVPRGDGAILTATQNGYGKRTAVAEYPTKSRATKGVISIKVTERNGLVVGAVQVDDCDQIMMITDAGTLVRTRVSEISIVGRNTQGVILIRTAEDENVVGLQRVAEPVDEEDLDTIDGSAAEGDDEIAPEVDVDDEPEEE
Description: The target activity of the synthesized derivatives was investigated using a DNA cleavage assay with purified and enzymatically active E. coli DNA gyrase[8] (see SI). In this assay, albicidin‐stabilized complexes of gyrase and plasmid DNA are trapped, and subsequently denatured and deproteinated to reveal DNA linearized by gyrase. […] For the best performing compounds, which were able to fully stabilize the cleavage complex at a concentration of 1 μM, the concentrations at half‐maximum cleavage (CC50) were determined (Figure 3).
1.2 Escherichia coli Gyrase Cleavage Inhibition Assay
E. coli gyrase cleavage assays were executed by setting up a master mix including 0.25 µg relaxed plasmid (pBR322) in 35 mM Tris-HCl (pH 7.5), 24 mM KCl, 4 mM MgCl2, 2 mM dithithreitol (DTT), 1.8 mM spermidine, 1 mM ATP, 6.5% (wt/vol) glycerol and 0.1 mg/ml bovine serum albumin per reaction.
Of this stock solution, 13.2 µL was aliquoted for each reaction into 1.5 mL Eppendorf tubes and supplemented with 0.3 µL of the appropriate compound dilution or DMSO with a […] DMSO concentration of 2% per reaction. The reactions were started with 1.5 µL of 50 nM (pre-screening) or 40 nM (IC50 determinations) wt E. coli gyrase in dilution buffer (50 mM Tris-HCl (pH 7.5), 100 mM KCl, 2 mM DTT, 1 mM EDTA, and 50% (wt/vol) glycerol) for a […] volume of 15 µL. Reactions were incubated at 37°C for 30 minutes before addition of 1.5 µL 0.2% (wt/vol) SDS and 0.75 µL proteinase K (0.2 mg/mL) and further incubation at 37°C for 30 minutes to trap cleavage complexes. Reactions were stopped with 15 µL chloroform:isoamyl alcohol (24: 1 v/v) and 15 µL of STEB (40% (wt/vol) sucrose, […] Tris-Cl pH 8, 10 mM EDTA, 0.5 mg/mL bromophenol blue). After brief vortexing and centrifugation at 2,300g for 5 min, 15 µL of the aqueous phase was loaded onto 1% (wt/vol) agarose in TAE (Tris-acetate […] and EDTA […]) gels supplemented with 10 µg/mL ethidium bromide.
The gels were run at 85 V for 2 hours.
DNA was visualized (602/50, UV Trans, auto optimal exposure) with a ChemiDoc MP (Bio-Rad Laboratories Inc., equipped with ImageLab Touch Software v2.0.0.27) and the percentage of cleaved DNA relative to the total amount of DNA per lane was determined with ImageJ software.[2] IC50 curves were generated in GraphPad Prism (v10.0.0) using the non-linear regression curve fit variable slope with four parameters and least squares regression.

[1] = test system: Salmonella typhimurium TA100; assay: MIC determination (broth microdilution); type: cell-based; conditions: Salmonella enterica, read-out: MIC S. typh.
Description: (§1) After completing the syntheses, the antibacterial activity of A‐variations 4–24 was assessed by determination of MIC values against a basic set of gram‐negative and gram‐positive bacteria (Table 1). The monocyclic derivatives 4–8 featuring a cyano‐, trifluoromethyl‐, methoxy‐ and fluoro‐ substituent in para‐position were very active against the gram–negative E. coli and S. typhimurium strains with MIC values in the same range as 3rd Gen albicidin 3 or ciprofloxacin which is the gold standard for gyrase inhibitors. […] These findings are in agreement with previous studies showing good activities for cyano, trifluoromethyl, methoxy and fluoro substituents in the para‐position of different aromatic rings in the building block A.[12, 13] The activity of the monocyclic derivatives 4–8 against the gram‐positive strains B. subtilis and M. luteus were similar but slightly less pronounced compared to the lead structure 3.
(§2) 1.1 Determination of Minimal Inhibitory Concentrations (MIC)
(§3) Minimal inhibitory concentration (MIC) against selected bacterial strains values were determined according to the ninth edition of the Approved Standard M07-A9.[1] 20 μL of cryo stocks of bacterial strains were suspended in 20 mL LB medium (Lysogeny broth: 10 g/L peptone, 5 g/L yeast extract, 5 g/L NaCl). Following incubation overnight at 37°C, 200 rpm, the test inoculum was adjusted by 0.5 McFarland Standard in cation adjusted Mueller-Hinton broth (BBLTM Mueller-Hinton Broth II, Becton, Dickinson and Company, New Jersey, USA) to approximately 1x10^6 CFU mL-1. 95 μL of the bacterial inoculum were applied per well of a 96-well plate. Albicidin and albicidin derivatives 3−24 were dissolved in DMSO (100%) to an initial concentration of 2560 μg/mL and serially diluted in DMSO (100%). Initial solution and serial dilutions of Ciprofloxacin were prepared in 0.1 N HCL, respectively. 5 μL of each antibiotic dilution were added to the microdilution tray to reach albicidin concentrations of 128 μg/mL to 0.016 μg/mL per well. One row of each well plate served as a growth control without antibiotic substances and another row of the microdilution tray served as sterility control (only MHB II - media). The antimicrobial effect of the solvent (DMSO) was tested by adding 5 μL DMSO to several wells. Purity check and cell titer control were performed according to International S tandard M07-A9 on Mueller-Hinton II Agar (Mueller Hinton II Broth, 15 g/L agar-agar). Both microdilution trays and agar plates were incubated at 30−37°C for 16 h and subsequently analyzed for growth inhibition by naked eye. The following primary panel of microorganisms were purchased from German Collection of Microorganisms and Cell Cultures (DSMZ):
(§4) Escherichia coli DSM 1116
(§5) Micrococcus luteus DSM 1790
(§6) Mycobacterium phlei DSM 750
(§7) Salmonella typhimurium TA100 was kindly provided by Prof. Dr. Vera Meyer (Technische Universität Berlin). […]
(§8) was purchased as part of the single gene knockout library of E. coli K12 BW25113 (Keio collection) from Horizon Discovery group plc (Cambridge, UK).

E. coli BW25113 = assay: MIC determination (broth microdilution); type: cell-based; conditions: Escherichia coli, BW25113; read-out: MIC E. coli BW25113
Description: as §1, §2, §3, §4, §5, §6, §7, §8

[2] = test system: Micrococcus luteus DSM 1790; assay: MIC determination (broth microdilution); type: cell-based; conditions: DSM1790, read-out: MIC M. luteus
Description: as §1, §2, §3, §4, §5, §6, §7, §8

E. coli DSM1116 = assay: MIC determination (broth microdilution); type: cell-based; conditions: Escherichia coli, DSM1116; read-out: MIC E. coli DSM1116
Description: as §1, §2, §3, §4, §5, §6, §7, §8

Bacillus subtilis DSM 10 = assay: MIC determination (broth microdilution); type: cell-based; conditions: DSM10, read-out: MIC B. sub.
Description: as §1, §2, §3, §4, §5, §6, §7, §8

[3] = test system: Mycobacterium phlei DSM 750; assay: MIC determination (broth microdilution); type: cell-based; conditions: Mycolicibacterium phlei, DSM750; read-out: MIC M. phlei
Description: as §1, §2, §3, §4, §5, §6, §7, §8

E. coli = assay: MIC against E. coli in presence of 50 % human serum; type: cell-based; conditions: Escherichia coli; E. coli in presence of 50 % human serum; read-out: MICEc 50%HS
[4] = Reverse-phase HPLC retention time as estimate of lipophilicity; type: physicochemical; conditions: indicator of lipophilicity
Excerpt: As mentioned before, albicidin 1 is a rather hydrophobic compound and improving its aqueous solubility is desirable. The lipophilicity of drug molecules is commonly characterized by the octanol/water partition coefficient (logP). An alternative approach relies on the correlation between lipophilicity and the retention time (Rt) on a reverse‐phase HPLC column.[31] This approach works well if structurally related compounds are compared as is the case for this SAR study. Rt was thus used to estimate the hydrophilicity of albicidin 1 and its derivatives 2–24 (Table 1).[32]

For `COc1c(NC(=O)c2ccc(NC(=O)c3ccc(NC(=O)[C@H](CC#N)NC(=O)c4ccc(NC(=O)/C(C)=C/c5ccc(O)cc5)cc4)cc3)c(OC)c2O)ccc(C(=O)O)c1O` [compound 1, albicidin], the pIC50 (bacterial DNA gyrase) is listed as 7.40.

For `COc1c(NC(=O)c2ccc(NC(=O)c3ccc(NC(=O)[C@H](Cc4c[nH]nn4)NC(=O)c4ccc(NC(=O)c5ccc(F)cn5)cc4)cn3)c(OC)c2O)ccc(C(=O)O)c1O` [compound 7], the “Gyrase inhibition strong+ / weak −” value (E. coli DNA gyrase) was “+”, the MIC [1] was ≤ 0.016 µg/mL and the MIC (E. coli BW25113) was 0.031 µg/mL (≈ 0.0365 µM). It also gave an MIC [2] of 0.125 µg/mL (≈ 0.147 µM), an MIC (E. coli DSM1116) of 0.031 µg/mL (≈ 0.0365 µM) and an MIC (Bacillus subtilis DSM 10) of 0.125 µg/mL (≈ 0.147 µM). For the same compound, the MIC [3] was 2 µg/mL (≈ 2.36 µM), the MIC (E. coli) was 4 µg/mL and the “Rt (retention time)” value [4] was 8.29 min.

For `COc1c(NC(=O)c2ccc(NC(=O)c3ccc(NC(=O)[C@H](Cc4c[nH]nn4)NC(=O)c4ccc(NC(=O)c5ccc([N+](=O)[O-])cn5)cc4)cn3)c(OC)c2O)ccc(C(=O)O)c1O` [compound 8], the “Gyrase inhibition strong+ / weak −” value (E. coli DNA gyrase) was “+”, the MIC [1] was 0.063 µg/mL (≈ 0.0719 µM) and the MIC (E. coli BW25113) was 0.125 µg/mL (≈ 0.143 µM). It also gave an MIC [2] of 0.063 µg/mL (≈ 0.0719 µM), an MIC (E. coli DSM1116) of 0.063 µg/mL (≈ 0.0719 µM) and an MIC (Bacillus subtilis DSM 10) of 0.25 µg/mL (≈ 0.285 µM). For the same compound, the MIC [3] was 2 µg/mL (≈ 2.28 µM), the MIC (E. coli) was 8 µg/mL and the “Rt (retention time)” value [4] was 8.30 min.

For `COc1c(NC(=O)c2ccc(NC(=O)c3ccc(NC(=O)[C@H](Cc4c[nH]nn4)NC(=O)c4ccc(NC(=O)c5ccc6cc(O)ccc6c5)cc4)cn3)c(OC)c2O)ccc(C(=O)O)c1O` [compound 10], the CC50 (E. coli DNA gyrase; E. coli gyrase DNA cleavage, read-out: CC50 (concentration at half-maximum cleavage)) was 78 nM, the “Gyrase inhibition strong+ / weak −” value (E. coli DNA gyrase) was “+” and the MIC [1] was ≤ 0.016 µg/mL. The MIC (E. coli BW25113) was ≤ 0.016 µg/mL, the MIC [2] was 0.031 µg/mL (≈ 0.0346 µM) and the MIC (E. coli DSM1116) was 0.016 µg/mL (≈ 0.0179 µM). The MIC (Bacillus subtilis DSM 10) was 0.063 µg/mL (≈ 0.0703 µM), the MIC [3] was 1 µg/mL (≈ 1.12 µM) and the MIC (E. coli) was 2 µg/mL. For the same compound, the “Rt (retention time)” value [4] was 8.15 min.

Reference: PMC11979685, “Synthesis of Derivatives of the Antibiotic Albicidin: The N‐Terminal Fragment as Key to Control Potency and Resistance Mediated by the Binding Protein AlbA” (Chemistry (Weinheim an Der Bergstrasse, Germany), 2025)
